Reference: patent US11254720B2, “Methods and systems for designing and/or characterizing soluble lipidated ligand agents” (Tufts Medical Center, priority 2013, dated 2022)
Non-standard residues stand in square brackets, D forms with d. Residues, ends and D or L forms follow the SMILES beside them. *: point of attachment. PEG8 = NCCOCCOCCOCCOCCOCCOCCOCCOCCC(=O)O; Palmitoyl = CCCCCCCCCCCCCCCC(=O)*; Tic = O=C(O)[C@@H]1Cc2ccccc2CN1

Assays:
Male FVB mice = experiment: Ovalbumin sensitization and aerosol challenge model of allergic airway inflammation; type: in vivo, mouse; conditions: Day 18
Source text: Representative photographs are taken at 20× magnification. (C) Lung tissue sections at Day 18 were obtained from fixed, paraffin-embedded lung tissue stained with hematoxylin and eosin. Representative photographs are taken at both 20× and 40×. (D) Total BALF cells and leukocyte subsets were quantified on Day 18 and compared between mice receiving DMSO or l-Stable Chem. Data are representative of the mean±S.E.M. from n=3-8 mice per group. Comparison of DMSO control to l-Stable Chem: *p<0.05.
Male FVB mice age 5-7 weeks (Charles River Laboratories) were housed under viral antibody-free conditions. Ovalbumin (OVA) sensitization and drug administration were performed as previously described with slight modifications. Briefly, mice were sensitized with intraperitoneal injection of 10 μg OVA (Grade III: Sigma) on days 0 and 7. On days 14, 15, 16, and 17, mice received a 25 minute aerosol challenge of 6% (wt/vol) OVA each day. On each of these days, 30 min prior to OVA challenge, mice were given 20 μL of lipidated stable chemerin (21 mM stock in DMSO diluted 1:100 in saline for a final concentration of 210 μM) by the intranasal route. Corresponding controls received DMSO diluted 1:100 in saline. On day 18 or 22, bronchoalveolar lavage fluid (BALF) was collected; animals were sacrificed for histological assessment. […] Cells in BALF were resuspended in PBS and counted with a hemocytometer; cytospins were done via cytocentrifugation (265 g; StatSpin). Cells from the cytospin were stained with Wright-Giemsa stain (Sigma) for quantification of leukocyte subsets. At least 200 cells were counted per slide. […] On the 5th day (corresponding to day 18), mice were sacrificed and BALF collected and analyzed as described above.
Given the high potency, stability, and wash resistance of the lipidated stable chemerin analog, the anti-inflammatory activity of this compound in vivo was examined. […] Markers of inflammation were assessed at day 18 (time course: FIG. 6A).

Adult CD1 mice = experiment: Chronic constriction injury neuropathic pain model, von Frey and acetone tests; type: in vivo, mouse; conditions: intrathecal 100 pmol, 1 week after nerve injury
Source text: Intrathecal injection of 1-stable chem (100 pmol), 1 week after CCI, reduces CCI-induced mechanical hypersensitivity (panels A+C) and cold allodynia (panel E). Intrathecal injection of ResolvinE1 (RvE1)(100 pmol), 1 week after CCI, reduces CCI-induced mechanical hypersensitivity (panels B+D) and cold allodynia (panel F). BL=baseline before surgery.
Adult CD1 mice (male, 25-35 g) were used for behavioral studies. Mice were group-housed and kept under a 12-hour light/dark cycle. […]
Nerve injury-induced mechanical allodynia and hypersensitivity were assessed by von Frey hairs as previously described (see Xu et al., Resolvin E1 inhibits neuropathic pain and spinal cord microglial activation following peripheral nerve injury, 2013, J. Neuroimmune Pharmacol, 8: 37-41). […] The 50% paw withdrawal threshold (PWT) was determined using Dixon's up-down method. For paw withdrawal frequency (PWF), the same von Frey hair (0.16 g) was applied 10 times and the number of positive responses to the stimulations counted. A positive response was scored if the mouse sharply withdrew the paw or flinched upon removal of the stimulus. […] In brief, a drop of acetone was placed against the plantar paw of the mouse and the mouse's response monitored for the next 20 seconds. […]

[1] = test system: HEK293 cells transfected with vector control (pcDNA1.1); experiment: Luciferase reporter assay in cells transfected with vector control; type: cell-based, human; conditions: cells transfected with pcDNA1.1 vector control
Protocol: (§1) Receptor-mediated signaling was assessed as previously described. Briefly, HEK293 cells were plated at a density of 6,000 cells/well into 96-well clear-bottom plates and grown to ˜80% confluence. […] Expression of Gq5i66V directs signaling of the Gαi-coupled chemerin receptor to stimulation of a Gαq-dependent SRE5x-Luc-PEST reporter gene. For experiments investigating the agonist function of soluble and lipidated peptides, tethered ligand cDNA was not included in the transfection mixture. Twenty four hours after transfection, cells were stimulated with or without peptide agonist for 4 hours in serum-free medium. […] Following ligand stimulation, the media was aspirated and luciferase activity measured using SteadyLite reagent and quantified using a TopCount NTX. A β-galactosidase assay was then performed following assessment of luminescence. Cleavage of 2-nitrophenyl β-D-galactopyranoside substrate was quantified after incubation of cell lysates at 37° C. for 30 to 60 minutes by measuring the optical density at 420 nm on a SpectraMax microplate reader. Luciferase reporter gene activities were normalized to corresponding β-galactosidase activity controls.

human CMKLR1 [2] = target: T1, human CMKLR1 (Homo sapiens, UniProt Q99788); experiment: SRE-luciferase reporter gene assay in transfected HEK293 cells; conditions: pEC50, Human CMKLR1, no wash; mean ± S.E.M.
T1 sequence (Q99788 1-373): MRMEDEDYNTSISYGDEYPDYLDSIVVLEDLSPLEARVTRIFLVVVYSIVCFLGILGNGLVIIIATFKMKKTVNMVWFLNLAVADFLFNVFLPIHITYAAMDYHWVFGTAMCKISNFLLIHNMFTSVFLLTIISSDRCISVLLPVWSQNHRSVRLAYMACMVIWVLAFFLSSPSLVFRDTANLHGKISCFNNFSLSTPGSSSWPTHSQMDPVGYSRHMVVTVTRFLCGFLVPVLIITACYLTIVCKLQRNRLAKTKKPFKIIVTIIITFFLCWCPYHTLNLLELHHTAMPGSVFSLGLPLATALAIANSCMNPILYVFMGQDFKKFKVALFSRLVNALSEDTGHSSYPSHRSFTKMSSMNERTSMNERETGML
Protocol: as §1
(§2) HEK293 cells were transiently transfected with cDNAs encoding i) human or mouse CMKLR1, ii) a SRE5x-Luc reporter gene, iii) a Gαq5i66V chimera, and iv) a β-galactosidase control. Twenty-four hours after transfection, cells were stimulated with ligand for 4 hours and luciferase activity determined as described in Experimental Procedures. Luciferase activity was normalized relative to the maximal value observed using saturating concentrations of the corresponding soluble ligand (=100%). […] As a next step, the effect of membrane anchoring on chemerin activity was examined. […] HEK293 cells were transiently transfected with cDNAs encoding i) various tethered ligands, ii) human or mouse CMKLR1, iii) a SRE5x-Luc reporter gene, iv) aGαq5i66V chimera, and v) a β-galactosidase control. Twenty-four hours after transfection, luciferase activity was determined as described in Experimental Procedures.
(§3) HEK293 cells were transiently transfected with cDNAs encoding i) 8 ng of various tethered ligands, ii) human or mouse CMKLR1, iii) a SRE5x-Luc reporter gene, iv) a Gαq5i66V chimera, and v) a β-galactosidase control. Twenty-four hours after transfection, luciferase activity was determined as described in Experimental Procedures.

mouse CMKLR1 [3] = target: T2, mouse CMKLR1 (Mus musculus, UniProt P97468); experiment: as above
T2 sequence (P97468 1-371): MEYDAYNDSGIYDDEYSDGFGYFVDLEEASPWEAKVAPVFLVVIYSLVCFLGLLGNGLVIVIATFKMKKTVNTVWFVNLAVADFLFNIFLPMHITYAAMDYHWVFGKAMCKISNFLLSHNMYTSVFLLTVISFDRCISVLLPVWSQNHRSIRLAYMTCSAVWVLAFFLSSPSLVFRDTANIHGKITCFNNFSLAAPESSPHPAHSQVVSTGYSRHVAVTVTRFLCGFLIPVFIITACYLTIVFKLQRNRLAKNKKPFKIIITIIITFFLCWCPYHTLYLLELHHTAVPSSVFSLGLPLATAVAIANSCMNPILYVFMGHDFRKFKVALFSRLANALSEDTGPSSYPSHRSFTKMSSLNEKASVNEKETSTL
Protocol: as §1, §2, §3

human CMKLR1 [4] = target: T1, human CMKLR1; experiment: Washout experiments (serial washes after 15 min ligand, luciferase readout)
Protocol: (§4) Agonist activity was compared with and without serial washings shortly after addition of ligand. Briefly, HEK293 cells were plated and transfected as described above with the addition of a poly-L-lysine plate pretreatment step to enhance cell adhesion. Twenty-four hours after transfection, cells were stimulated with increasing concentrations of agonist for 15 minutes at 37° C. Selected wells were washed three times with serum-free media. Plates were then incubated for an additional 4 hours. Receptor mediated signaling was assessed using a luciferase based assay as described above.
(§5) HEK293 cells were transiently transfected with cDNAs encoding i) human or mouse CMKLR1, ii) a SRE5x-Luc reporter gene, iii) a Gαq5i66V chimera, and iv) a β-galactosidase control. Twenty-four hours after transfection, cells were stimulated with increasing concentrations of various ligands for 15 minutes. Selected wells were then washed three times with serum-free media and plates were further incubated for 4 hours.

mouse CMKLR1 [5] = target: T2, mouse CMKLR1; experiment: as above
Protocol: as §4, §5

[6] = three washes after 15 min ligand

CCCCCCCCCCCCCCCC(=O)NCCOCCOCCOCCOCCOCCOCCOCCOCCC(=O)NCC(=O)NCC(=O)N[C@H](Cc1ccc(O)cc1)C(=O)N[C@@H](Cc1ccccc1)C(=O)N[C@@H](CC(C)C)C(=O)N1CCC[C@H]1C(=O)N[C@H](CO)C(=O)N[C@@H](CCC(N)=O)C(=O)N[C@@H](Cc1ccccc1)C(=O)N[C@H](C)C(=O)N1Cc2ccccc2C[C@H]1C(=O)N[C@@H](CO)C(=O)O [I-Stable Chem] ({Palmitoyl-PEG8}-GG[dY]FLP[dS]QF[dA][Tic]S-OH)
Lung inflammatory response (H+E staining) (Male FVB mice; in comparison to DMSO controls): Less leukocyte infiltration and fewer reactive bronchial epithelial cells
Number of eosinophils in bronchoalveolar lavage fluid (Male FVB mice; intranasal, 30 min prior to OVA challenge, versus DMSO): decreased
Airway epithelial mucus (PAS staining) (Male FVB mice; versus DMSO control): most pronounced attenuation of mucus metaplasia
Duration of significant reduction of established mechanical and cold allodynia (Adult CD1 mice): greater than 24 hours
Agonist activity without CMKLR1 expression [1]: no agonist activity
EC50 (human CMKLR1 [2]): 2.57 nM
EC50 (mouse CMKLR1 [3]; EC50 (nM), Mouse CMKLR1, no wash, HEK293 luciferase reporter): 2 nM
EC50 (mouse CMKLR1 [3]; pEC50, Mouse CMKLR1, no wash, mean ± S.E.M.): 2 nM
EC50 (human CMKLR1 [4]; pEC50, Human CMKLR1, + wash, washed three times after 15 min ligand, then 4 hours): 25.1 nM
Agonist activity after serial washes, human CMKLR1 (human CMKLR1 [4]; [6]): persisted despite washing
EC50 (mouse CMKLR1 [5]; pEC50, Mouse CMKLR1, + wash, washed three times after 15 min ligand, then 4 hours): 11 nM
Agonist activity after serial washes, mouse CMKLR1 (mouse CMKLR1 [5]; [6]): persisted despite washing
